According to patent US20230265094A1, “RIPK1 INHIBITORS AND METHODS OF USE” (Merck Sharp & Dohme LLC, priority 2020, published 2023):
Where a name gives a salt, the structure may show the parent alone.

Target: T1, RIPK1 (Homo sapiens, UniProt Q13546)
T1 construct: recombinant GST-RIPK1 kinase domain (residues 1-327) enzyme produced from baculovirus-transfected Sf21 cells; host or cells: baculovirus-transfected Sf21 insect cells
T1 sequence (Q13546 1-327): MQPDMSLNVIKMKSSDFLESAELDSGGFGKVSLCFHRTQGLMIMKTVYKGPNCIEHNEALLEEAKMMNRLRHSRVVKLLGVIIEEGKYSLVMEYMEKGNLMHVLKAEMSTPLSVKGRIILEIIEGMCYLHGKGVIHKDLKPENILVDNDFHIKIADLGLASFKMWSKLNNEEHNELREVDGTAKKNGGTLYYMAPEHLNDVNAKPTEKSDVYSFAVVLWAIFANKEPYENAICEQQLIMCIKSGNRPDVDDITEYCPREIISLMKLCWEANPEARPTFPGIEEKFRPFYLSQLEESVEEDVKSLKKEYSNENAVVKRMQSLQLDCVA
Test: RIPK1-ADP-Glo enzymatic assay
Assay type: biochemical
Settings: ADP-Glo luminescent ADP detection; 25 nM GST-RIPK1 kinase domain (residues 1-327), 300 μM ATP, dephosphorylated-MBP substrate; 30 min pre-incubation, 150 min reaction
Method: RIPK1-ADP-Glo Enzymatic Assay
The enzymatic activity of RIPK1 is measured using an assay derived from ADP-Glo kit (Promega™), which provides a luminescent-based ADP detection system. Specifically, the ADP generated by RIPK1 kinase is proportionally detected as luminescent signals in a homogenous fashion. In this context, the assessment of the inhibitory effect of small molecules (EC50) is measured by the effectiveness of the compounds to inhibit the ATP to ADP conversion by RIPK1.
In this assay, the potency (EC50) of each compound was determined from a ten-point (1:3 serial dilution; top compound concentration of 100000 nM) titration curve using the following outlined procedure. To each well of a white ProxiPlus 384 well-plate, 30 nL of compound (1% DMSO in final assay volume of 3 μL) was dispensed, followed by the addition of 2 μL of 1×assay buffer (25 mM Hepes 7.3, 20 mM MgCl2, 50 mM NaCl, 1 mM DTT, 0.005% Tween20, and 0.02% BSA) containing 37.5 nM of GST-RIPK1 (recombinant GST-RIPK1 kinase domain (residues 1-327) enzyme produced from baculovirus-transfected Sf21 cells: MW=62 kDa). Plates were placed in an ambient temperature humidified chamber for a 30 minutes pre-incubation with compound. Subsequently, each reaction was initiated by the addition of 1 μL 1×assay buffer containing 900 μM ATP and […] dephosphorylated-MBP substrate. The final reaction in each well of 3 μL consists of 25 nM of GST-RIPK1, 300 μM ATP, and 3 μM dephosphorylated-MBP. Kinase reactions were allowed to proceed for 150 minutes prior to adding ADP-Glo reagents per Promega's outlined kit protocol. Dose-response curves were generated by plotting percent effect (% product conversion; Y-axis) vs. Log10 compound concentrations (X-axis). EC50 values were calculated using a non-linear regression, four-parameters sigmoidal dose-response model.

Row | SMILES | EC50
1 | O=C(N1CC(Oc2ccccn2)C1)N1N=CC[C@H]1c1cc(F)cc(F)c1 [Example 1.58, (S)-(5-(3,5-difluorophenyl)-4,5-dihydro-1H-pyrazol-1-yl)(3-(pyridin-2-yloxy)azetidin-1-yl)methanone] | 1380 nM
2 | O=C(N1CC(OC2CCCCC2)C1)N1N=CC[C@H]1c1cc(F)cc(F)c1 [Example 1.59, (S)-(3-(cyclohexyloxy)azetidin-1-yl)(5-(3,5-difluorophenyl)-4,5-dihydro-1H-pyrazol-1-yl)methanone] | 245 nM
3 | O=C(N1CCC1)N1N=CC[C@H]1c1cc(F)cc(F)c1 [Example 1.60, (S)-azetidin-1-yl(5-(3,5-difluorophenyl)-4,5-dihydro-1H-pyrazol-1-yl)methanone] | 64.5 nM
4 | N#Cc1ccc(OC2CN(C(=O)N3N=CC[C@H]3c3cc(F)cc(F)c3)C2)cn1 [Example 1.61, (S)-5-((1-(5-(3,5-difluorophenyl)-4,5-dihydro-1H-pyrazole-1-carbonyl)azetidin-3-yl)oxy)picolinonitrile] | 26.3 nM
5 | COC1CN(C(=O)N2N=CC[C@H]2c2cc(F)cc(F)c2)C1 [Example 2.1, (S)-(5-(3,5-difluorophenyl)-4,5-dihydro-1H-pyrazol-1-yl)(3-methoxyazetidin-1-yl)methanone] | 11 nM
6 | CCOC1CN(C(=O)N2N=CC[C@H]2c2cc(F)cc(F)c2)C1 [Example 2.2, (S)-(5-(3,5-difluorophenyl)-4,5-dihydro-1H-pyrazol-1-yl)(3-ethoxyazetidin-1-yl)methanone] | 27.2 nM
7 | O=C(N1CC(Nc2ccccc2)C1)N1N=CC[C@H]1c1cc(F)cc(F)c1 [Example 2.3, (S)-(5-(3,5-difluorophenyl)-4,5-dihydro-1H-pyrazol-1-yl)(3-(phenylamino)azetidin-1-yl)methanone] | 6.7 nM
8 | O=C(N1CC(Oc2ccccc2)C1)N1N=CC[C@H]1c1ccc(Cl)cc1 [Example 2.6, (S)-(5-(4-chlorophenyl)-4,5-dihydro-1H-pyrazol-1-yl)(3-phenoxyazetidin-1-yl)methanone] | 9.6 nM
9 | CC(C)C1(O)CN(C(=O)N2N=CC[C@H]2c2ccc(Cl)cc2)C1 [Example 2.7, (S)-(5-(4-chlorophenyl)-4,5-dihydro-1H-pyrazol-1-yl)(3-hydroxy-3-isopropylazetidin-1-yl)methanone] | 5160 nM
10 | O=C(N1CC(O)(c2ccccc2)C1)N1N=CC[C@H]1c1ccc(Cl)cc1 [Example 2.8, (S)-(5-(4-chlorophenyl)-4,5-dihydro-1H-pyrazol-1-yl)(3-hydroxy-3-phenylazetidin-1-yl)methanone] | 2430 nM
11 | O=C(N1CC(Nc2ccccc2)C1)N1N=CC[C@H]1c1ccc(Cl)cc1 [Example 2.9, (S)-(5-(4-chlorophenyl)-4,5-dihydro-1H-pyrazol-1-yl)(3-(phenylamino)azetidin-1-yl)methanone] | 22.7 nM
12 | O=C(N1CC(Cc2ccccc2)C1)N1N=CC[C@H]1c1ccc(Cl)cc1 [Example 2.10, (S)-(3-benzylazetidin-1-yl)(5-(4-chlorophenyl)-4,5-dihydro-1H-pyrazol-1-yl)methanone] | 11.4 nM
13 | O=C(N1CC(O)(C(F)(F)F)C1)N1N=CC[C@H]1c1ccc(Cl)cc1 [Example 2.11, (S)-(5-(4-chlorophenyl)-4,5-dihydro-1H-pyrazol-1-yl)(3-hydroxy-3-(trifluoromethyl)azetidin-1-yl)methanone] | 578 nM
14 | CC(C)OC1CN(C(=O)N2N=CC[C@H]2c2ccc(Cl)cc2)C1 [Example 2.12, (S)-(5-(4-chlorophenyl)-4,5-dihydro-1H-pyrazol-1-yl)(3-isopropoxyazetidin-1-yl)methanone] | 10.6 nM
15 | COC1(C)CN(C(=O)N2N=CC[C@H]2c2ccc(Cl)cc2)C1 [Example 2.13, (S)-(5-(4-chlorophenyl)-4,5-dihydro-1H-pyrazol-1-yl)(3-methoxy-3-methylazetidin-1-yl)methanone] | 64.9 nM
16 | O=C(N1CC(Oc2ccccc2)C1)N1N=CC[C@H]1c1cccnc1 [Example 2.14, (S)-(3-phenoxyazetidin-1-yl)(5-(pyridin-3-yl)-4,5-dihydro-1H-pyrazol-1-yl)methanone] | 20.5 nM
17 | O=C(N1CC(Oc2ccccc2)C1)N1N=CC[C@@H]1c1cccnc1 [Example 2.15, (R)-(3-phenoxyazetidin-1-yl)(5-(pyridin-3-yl)-4,5-dihydro-1H-pyrazol-1-yl)methanone] | 95.6 nM
18 | O=C(N1CC(Oc2ccccc2)C1)N1N=CC[C@H]1C12CCC(CC1)C2 [Example 2.16, ((5S)-5-(bicyclo[2.2.1]heptan-1-yl)-4,5-dihydro-1H-pyrazol-1-yl)(3-phenoxyazetidin-1-yl)methanone] | 92.7 nM
19 | CN(c1ccccc1)C1CN(C(=O)N2N=CC[C@H]2c2cc(F)cc(F)c2)C1 [Example 2.17, (S)-(5-(3,5-difluorophenyl)-4,5-dihydro-1H-pyrazol-1-yl)(3-(methyl(phenyl)amino)azetidin-1-yl)methanone, TFA salt] | 7.1 nM
20 | C[C@H]1[C@@H](Oc2ccc(F)cc2)CN1C(=O)N1N=CC[C@H]1c1cncc(F)c1 [Example 2.18, ((2S,3S)-3-(4-fluorophenoxy)-2-methylazetidin-1-yl)((S)-5-(5-fluoropyridin-3-yl)-4,5-dihydro-1H-pyrazol-1-yl)methanone] | 10 nM
21 | Cc1ncc([C@@H]2CC=NN2C(=O)N2C[C@H](Oc3ccc(F)cc3)[C@@H]2C)cc1F [Example 2.19, ((S)-5-(5-fluoro-6-methylpyridin-3-yl)-4,5-dihydro-1H-pyrazol-1-yl)((2S,3S)-3-(4-fluorophenoxy)-2-methylazetidin-1-yl)methanone] | 12.3 nM
22 | C[C@@H]1[C@H](Oc2ccc(F)cc2)CN1C(=O)N1N=CC[C@H]1c1ccc(Cl)cc1 [Example 2.20, ((S)-5-(4-chlorophenyl)-4,5-dihydro-1H-pyrazol-1-yl)((2R,3R)-3-(4-fluorophenoxy)-2-methylazetidin-1-yl)methanone] | 25.7 nM
23 | C[C@@H]1[C@H](Oc2ccc(F)cc2)CN1C(=O)N1N=CC[C@H]1c1cc(F)cc(F)c1 [Example 2.21, ((S)-5-(3,5-difluorophenyl)-4,5-dihydro-1H-pyrazol-1-yl)((2R,3R)-3-(4-fluorophenoxy)-2-methylazetidin-1-yl)methanone] | 39.1 nM
24 | C[C@@H]1[C@@H](Oc2ccc(F)cc2)CN1C(=O)N1N=CC[C@H]1c1cncc(F)c1 [Example 2.22, ((2R,3S)-3-(4-fluorophenoxy)-2-methylazetidin-1-yl)((S)-5-(5-fluoropyridin-3-yl)-4,5-dihydro-1H-pyrazol-1-yl)methanone] | 7.6 nM
25 | Cc1ncc([C@@H]2CC=NN2C(=O)N2C[C@H](Oc3ccc(F)cc3)[C@H]2C)cc1F [Example 2.23, ((S)-5-(5-fluoro-6-methylpyridin-3-yl)-4,5-dihydro-1H-pyrazol-1-yl)((2R,3S)-3-(4-fluorophenoxy)-2-methylazetidin-1-yl)methanone] | 10.1 nM
26 | C[C@@H]1[C@@H](Oc2ccc(F)cc2)CN1C(=O)N1N=CC[C@H]1c1cncc(C#N)c1 [Example 2.24, 5-((S)-1-((2R,3S)-3-(4-fluorophenoxy)-2-methylazetidine-1-carbonyl)-4,5-dihydro-1H-pyrazol-5-yl)nicotinonitrile] | 11.4 nM
27 | C[C@H]1[C@@H](Oc2ccc(F)cc2)CN1C(=O)N1N=CC[C@H]1c1cncc(C#N)c1 [Example 2.25, 5-((S)-1-((2S,3S)-3-(4-fluorophenoxy)-2-methylazetidine-1-carbonyl)-4,5-dihydro-1H-pyrazol-5-yl)nicotinonitrile] | 12.8 nM
28 | C[C@@H]1[C@@H](Oc2ccc(F)cc2)CN1C(=O)N1N=CC[C@H]1c1cc(F)cc(F)c1 [Example 2.26, ((S)-5-(3,5-difluorophenyl)-4,5-dihydro-1H-pyrazol-1-yl)((2R,3S)-3-(4-fluorophenoxy)-2-methylazetidin-1-yl)methanone] | 7.8 nM
29 | C[C@H]1[C@@H](Oc2ccc(F)cc2)CN1C(=O)N1N=CC[C@H]1c1cc(F)cc(F)c1 [Example 2.27, ((S)-5-(3,5-difluorophenyl)-4,5-dihydro-1H-pyrazol-1-yl)((2S,3S)-3-(4-fluorophenoxy)-2-methylazetidin-1-yl)methanone] | 6.8 nM
